Laboratory results as given in patent US8465736B2, “Glutadon” (priority 2006, dated 2013).
Entries after “also recorded” stand apart in the source; their conditions may differ.

How the values were obtained:
advanced carcinomas = assay: Phase I/IIa clinical study (GlutaDON): stabilization/progression by RECIST criteria; type: in vivo, human; conditions: for Progression (share of patients) / Stabilization (share of patients): Total
Procedure: In a phase I/IIa clinical study (GlutaDON®), altogether 58 patients with advanced carcinomas were treated with the combination of the two active ingredients described herein. The patients received PEG-PGA in a dosage of 120 IU/m^2 twice a week by the intravenous route, the infusion lasting 15 minutes. The administration of PEG-PGA was followed after 2-4 hours by the intravenous application of DON in a concentration of 5-185 mg/m^2. The duration of the infusion was again 15 minutes. […] According to the internationally accepted RECIST criteria, the term “stabilization” means that the increase in the measurable tumor diameters was less than 20% six weeks or more after the screening, i.e. after the staging of the tumor before the first treatment. According to the internationally accepted RECIST criteria, the term “progression” means that a growth of more than 20%, or a subjective progression, or new lesions were observed within six weeks.

[1] = GlutaDON study: side effects (nausea and vomiting); type: in vivo, human; conditions: DON up to 185 mg/m^2 in combination with PEG-PGA 120 IU/m^2 twice a week
Procedure: In a phase I/IIa clinical study (GlutaDON®), altogether 58 patients with advanced carcinomas were treated with the combination of the two active ingredients described herein. The patients received PEG-PGA in a dosage of 120 IU/m^2 twice a week by the intravenous route, the infusion lasting 15 minutes. The administration of PEG-PGA was followed after 2-4 hours by the intravenous application of DON in a concentration of 5-185 mg/m^2. The duration of the infusion was again 15 minutes.

[2] = dosages of up to 600 mg/m^2 twice a week; cited from earlier work
[3] = Colon, high DON dosage 105-185 mg/m^2, with PEG-PGA 120 IU/m^2
[4] = Colon, low DON dosage 5-80 mg/m^2, with PEG-PGA 120 IU/m^2
[5] = Kidney, high DON dosage 105-185 mg/m^2 i.v., after PEG-PGA 120 IU/m^2 twice a week
[6] = Kidney, low DON dosage 5-80 mg/m^2 i.v., after PEG-PGA 120 IU/m^2 twice a week
[7] = Other indications, high DON dosage 105-185 mg/m^2, with PEG-PGA 120 IU/m^2
[8] = Other indications, low DON dosage 5-80 mg/m^2, with PEG-PGA 120 IU/m^2
[9] = Ovary, high DON dosage 105-185 mg/m^2, with PEG-PGA 120 IU/m^2
[10] = Ovary, low DON dosage 5-80 mg/m^2, with PEG-PGA 120 IU/m^2
[11] = Prostate, high DON dosage 105-185 mg/m^2, with PEG-PGA 120 IU/m^2
[12] = Prostate, low DON dosage 5-80 mg/m^2, with PEG-PGA 120 IU/m^2
[13] = Total (10 patients), high DON dosage 105-185 mg/m^2, with PEG-PGA 120 IU/m^2
[14] = Total (36 patients), low DON dosage 5-80 mg/m^2, with PEG-PGA 120 IU/m^2
[15] = high DON dosage 105-185 mg/m^2, with PEG-PGA 120 IU/m^2
[16] = low DON dosage 5-80 mg/m^2, with PEG-PGA 120 IU/m^2

[N-]=[N+]=CC(=O)CC[C@H](N)C(=O)O [DON, 6-diazo-5-oxo-L-norleucine]
Progression (number of patients) (advanced carcinomas; [3]): 1 patients | Stabilization (number of patients) (advanced carcinomas; [3]): 0 patients | Progression (number of patients) (advanced carcinomas; [4]): 4 patients | Stabilization (number of patients) (advanced carcinomas; [4]): 2 patients | Progression (number of patients) (advanced carcinomas; [5]): 0 patients | Stabilization (number of patients) (advanced carcinomas; [5]): 4 patients | Progression (number of patients) (advanced carcinomas; [6]): 4 patients | Stabilization (number of patients) (advanced carcinomas; [6]): 5 patients | Progression (number of patients) (advanced carcinomas; [7]): 1 patients | Stabilization (number of patients) (advanced carcinomas; [7]): 0 patients | Progression (number of patients) (advanced carcinomas; [8]): 10 patients | Stabilization (number of patients) (advanced carcinomas; [8]): 4 patients | Progression (number of patients) (advanced carcinomas; [9]): 0 patients | Stabilization (number of patients) (advanced carcinomas; [9]): 1 patients | Progression (number of patients) (advanced carcinomas; [10]): 4 patients | Stabilization (number of patients) (advanced carcinomas; [10]): 1 patients | Progression (number of patients) (advanced carcinomas; [11]): 1 patients | Stabilization (number of patients) (advanced carcinomas; [11]): 2 patients | Progression (number of patients) (advanced carcinomas; [12]): 1 patients | Stabilization (number of patients) (advanced carcinomas; [12]): 1 patients | Progression (number of patients) (advanced carcinomas; [13]): 3 patients | Stabilization (number of patients) (advanced carcinomas; [13]): 7 patients | Progression (number of patients) (advanced carcinomas; [14]): 23 patients | Stabilization (number of patients) (advanced carcinomas; [14]): 13 patients | Progression (share of patients) (advanced carcinomas; [15]): 30% | Stabilization (share of patients) (advanced carcinomas; [15]): 70% | Progression (share of patients) (advanced carcinomas; [16]): 64% | Stabilization (share of patients) (advanced carcinomas; [16]): 36% | Nausea and vomiting as dose-limiting side effects [1]: without nausea and vomiting being found to be dosage-limiting side effects; also recorded: not dose-limiting | Action of DON used by itself [2]: very modest action | Nausea and vomiting with DON used by itself [2]: dosage-limiting side effects
